Reference: US7795315B2, “N-(2-amino-phenyl)-amide derivatives” (Hoffman-La Roche Inc., priority 2008, dated 2010)

What was measured:
Type in all cases: cell-based
[1] = test system: p21 promoter-luciferase construct in HeLa cells; test: p21 reporter gene induction; conditions: 3 micromolar, 15 hours, relative to SNDX-275
Procedure: (§1) The novel compounds of the present invention were tested for their ability to induce p21 gene expression using a reporter gene assay involving HeLa cells transfected with a p21 promoter-luciferase construct. The p21 promoter contained the Sp1/Sp3 binding site for HDAC but not the upstream p53 binding site. Briefly, the day before transfection, HeLa cells were seeded at 11,000 cells/well in a 96-well culture plate and incubated at 37 degrees Celsius in 5% CO2 overnight. For transfection, the medium was removed and replaced with 100 microliters/well transfection media previously prepared as follows: 5 microliters serum-free DMEM, 0.15 microliters Fugene 6 reagent, 40 ng p21-luc, 10 ng GFP were mixed gently and incubated at room temperature for 30 minutes; then 98 microliters DMEM (with 10% FBS, 1% penicillin and streptomycin) was added to the DNA:Fugene 6 reagent complex and mixed gently. After incubating the cells for 24 hours at 37 degrees Celsius in 5% CO2, fresh media and test compounds were added to the wells and the cells further incubated for 15 hours at 37 degrees Celsius in 5% CO2. Cells were lysed by adding 80 microliters/well of a cell culture lysis reagent (Promega). 50 microliters of each lysate was taken for GFP detection using an excitation wavelength of 486 nm and detection at 527 nm. 100 microliters Luciferase assay reagent (Promega) was then added to every 20 microliters cell lysate for luminometer detection. […] Induction activity for specific representative compounds can be found in Table 4.

[2] = test system: klf2 promoter-luciferase construct in A204 cells; test: klf2 reporter gene induction (p21 versus klf2 selectivity); conditions: SNDX-275 p21/klf2 ratio defined as 1.0; for p21/klf2 (RP3): relative selectivity compared with SNDX-275: 3 micromolar; for p21/klf2 (RP10): relative selectivity compared with SNDX-275: 10 micromolar
Procedure: as §1
The novel compounds of the present invention were tested for their ability to induce klf2 gene expression using a reporter gene assay involving A204 cells transfected with a klf2 promoter-luciferase construct. The klf2 promoter contained the MEF2 binding site for HDAC3/class IIa HDAC complex. Briefly, the day before transfection, A204 cells were seeded at 11,000 cells/well in a 96-well culture plate and incubated at 37 degrees Celsius in 5% CO2 overnight. For transfection, the medium was removed and replaced with 100 microliters/well transfection media previously prepared as follows: 5 microliters serum-free DMEM, 0.15 microliters Fugene 6 reagent, 40 ng klf2-luc, 10 ng GFP were mixed gently and incubated at room temperature for 30 minutes; then 98 microliters DMEM (with 10% FBS, 1% penicillin and streptomycin) was added to the DNA:Fugene 6 reagent complex and mixed gently. After incubating the cells for 24 hours at 37 degrees Celsius in 5% CO2, fresh media and test compounds were added to the wells and the cells further incubated for 15 hours at 37 degrees Celsius in 5% CO2. Finally, 10 ng/ml TNF-α was added and the cells further incubated for 4 hours. Cells were lysed by adding 80 microliters/well of a cell culture lysis reagent (Promega). 50 microliters of each lysate was taken for GFP detection using an excitation wavelength of 486 nm and detection at 527 nm. 100 microliters Luciferase assay reagent (Promega) was then added to every 20 microliters cell lysate for luminometer detection.

[3] = test system: HCT-116 colon cancer cells; test: Antiproliferative activity, growth inhibition (MTS/WST assay); conditions: Homo sapiens, 72 hour growth inhibition, read-out: GI50 HCT116
Procedure: The novel compounds of the present invention were tested for their ability to inhibit growth of various cancer cell lines (HeLa, MCF7, U2OS, HepG2, HL60, HCT-116) using in vitro growth inhibition assays described below.
Cells were seeded in 96-well culture plates (200 microliters/well at different seeding concentrations depending on cell type) and incubated overnight at 37 degrees Celsius in 5% CO2. After adding compound dilutions to the cells (DMSO concentration kept below 0.5%), the cells were incubated at 37 degrees Celsius in 5% CO2 for 72 hours. The effects on proliferation were determined by addition of MTS reagent (Promega) according to the manufacturer's instruction, followed by incubation for 2 hours at 37 degrees Celsius in 5% CO2, and finally recording the absorbance at 490 nm using an ELISA plate reader.
Similar to MTS assay except that the developer is the CCK-8 reagent (Dojindo) and the plate reader is set to 450 nm absorbance.
GI50 values against HCT-116 colon cancer cells for specific representative compounds can be found in Table 4.

Row | SMILES | p21 (RP3): relative induction potency compared with SNDX-275 [1] | p21/klf2 (RP3): relative selectivity compared with SNDX-275 [2] | p21/klf2 (RP10): relative selectivity compared with SNDX-275 [2] | GI50 [3]
1 | Nc1ccccc1NC(=O)/C=C/c1ccc(C(NCCN2CCOCC2)C(=O)Nc2ccc(C3CC3)cc2)cc1 (stereo not drawn) [Example 4-47, (E)-N-(2-Amino-phenyl)-3-{4-[(4-cyclopropyl-phenylcarbamoyl)-(2-morpholin-4-yl-ethylamino)-methyl]-phenyl}-acrylamide] | 79% | 1.0 | 1.8 | 0.9 µM
2 | Nc1ccccc1NC(=O)/C=C/c1ccc(C(NCCN2CCOCC2)C(=O)Nc2ccc(C(F)(F)F)cn2)cc1 (stereo not drawn) [Example 4-43, (E)-N-(2-Amino-phenyl)-3-{4-[(2-morpholin-4-yl-ethylamino)-(5-trifluoromethyl-pyridin-2-ylcarbamoyl)-methyl]-phenyl}-acrylamide] | 89% | 0.9 | 2.1 | 2.2 µM
3 | CN(C)CCNC(C(=O)Nc1ccc(C(F)(F)F)cc1F)c1ccc(/C=C/C(=O)Nc2ccccc2N)cc1 (stereo not drawn) [Example 4-24, (E)-N-(2-Amino-phenyl)-3-{4-[(2-dimethylamino-ethylamino)-(2-fluoro-4-trifluoromethyl-phenylcarbamoyl)-methyl]-phenyl}-acrylamide] | 162% | 1.5 | 1.5 | 2.1 µM
4 | Nc1ccccc1NC(=O)/C=C/c1ccc(C(NCCN2CCOCC2)C(=O)Nc2ccc(Br)cc2)cc1 (stereo not drawn) [Example 9-1, (E)-N-(2-Amino-phenyl)-3-{4-[(4-bromo-phenylcarbamoyl)-(2-morpholin-4-yl-ethylamino)-methyl]-phenyl}-acrylamide] | 144% | 1.0 | 2.2 | 1 µM
5 | Nc1ccccc1NC(=O)/C=C/c1ccc(C(NCCN2CCOCC2)C(=O)Nc2ccc(C(F)(F)F)c(F)c2)cc1 (stereo not drawn) [Example 4-36, (E)-N-(2-Amino-phenyl)-3-{4-[(3-fluoro-4-trifluoromethyl-phenylcarbamoyl)-(2-morpholin-4-yl-ethylamino)-methyl]-phenyl}-acrylamide] | 43% | 0.7 | 3.1 | 2 µM
6 | Nc1ccccc1NC(=O)/C=C/c1ccc(C(C(=O)Nc2ccc(C(F)(F)F)cc2)N2CCNCC2)cc1 (stereo not drawn) [Example 9-7, (E)-N-(2-Amino-phenyl)-3-{4-[piperazin-1-yl-(4-trifluoromethyl-phenylcarbamoyl)-methyl]-phenyl}-acrylamide] | 54% | 0.5 | 2.1 | 2.5 µM
7 | Nc1ccccc1NC(=O)/C=C/c1ccc(C(NCCN2CCOCC2)C(=O)Nc2ccc(C(F)(F)F)cc2F)cc1 (stereo not drawn) [Example 4-22, (E)-N-(2-Amino-phenyl)-3-{4-[(2-fluoro-4-trifluoromethyl-phenylcarbamoyl)-(2-morpholin-4-yl-ethylamino)-methyl]-phenyl}-acrylamide] | 103% | 1.8 | 2.0 | 1.2 µM
8 | CN(C)C(C(=O)Nc1ccc(C(F)(F)F)cc1)c1ccc(/C=C/C(=O)Nc2ccccc2N)cc1 (stereo not drawn) [Example 9-6, (E)-N-(2-Amino-phenyl)-3-{4-[dimethylamino-(4-trifluoromethyl-phenylcarbamoyl)-methyl]-phenyl}-acrylamide] | 47% | 0.9 | 1.7 | 2.7 µM
9 | CC(C)(C)c1ccc(NC(=O)C(NCCO)c2ccc(/C=C/C(=O)Nc3ccccc3N)cc2)cc1 (stereo not drawn) [Example 4-68, (E)-N-(2-Amino-phenyl)-3-{4-[(4-tert-butyl-phenylcarbamoyl)-(2-hydroxy-ethylamino)-methyl]-phenyl}-acrylamide] | 41% | 0.5 | 1.3 | 3.7 µM
